Assay results published in paper PMC4838876, “Multivalent display of minimal Clostridium difficile glycan epitopes mimics antigenic properties of larger glycans” (Nature Communications, 2016).

Tests used:
[1] = tested on: anti-PS-I mAbs; assay: STD-NMR competition experiment; assay type: binding, mouse; conditions: 1 added to 200 μM, saturation transfer time 2 s
Text: (§1) Figure 6 Epitope mapping of glycan–mAb interactions by STD-NMR. (a,b) Recognition of disaccharide 3 by mAb 10A1 shown as Lewis structure and three-dimensional model calculated with Glycam[70]. Colours indicate percentages of STD effects. (c) Recognition patterns of 3 by three mAbs. STD spectra were acquired at 2 s saturation transfer time in the presence of mAbs 2C5, 10A1 and 10D6 (from top to bottom). (d) Competition of trisaccharide 2 by pentasaccharide 1.
Owing to the slow off-rates of 1 with all three mAbs, we were unable to determine any STD effects for the pentasaccharide. […] This indicated identical binding sites and confirmed high-affinity binding of 1.
Before the STD-NMR studies, proton resonances of oligosaccharides 1–3 were assigned using standard one-dimensional proton spectra, as well as 2D total correlation spectroscopy (2D-TOCSY), correlation spectroscopy, ^1H–^13C heteronuclear single quantum coherence and ^1H–^13C heteronuclear multiple bond correlation spectra at concentrations varying between 5 and 20 mM in D2O. All NMR studies were measured at 298 K on a Varian PremiumCOMPACT 600 MHz spectrometer equipped with a OneNMR probe. […] A total of 2,048 scans were recorded. […] STD build-up curves for mAb 10A1 were recorded at saturation transfer times of 0.5, 1, 2, 4 and 6 s, adjusting the prescan delay accordingly. […]

[2] = tested on: mAb 10A1; assay: STD-NMR epitope mapping; assay type: binding, mouse; conditions: 200 μM ligand, 2 μM antibody
Text: To understand antibody binding at molecular-level detail and to identify the functional groups involved in antibody binding, we performed STD-NMR measurements. […] The glucose moiety in 3 contributed weakly to antibody binding around H3 (11%). Despite the low saturation transfer, this interaction appears to be important for antibody binding, as mono-rhamnose 4 was not or only weakly bound by the mAbs in glycan microarray and SPR experiments.
as §1
Before the STD-NMR studies, proton resonances of oligosaccharides 1–3 were assigned using standard one-dimensional proton spectra, as well as 2D total correlation spectroscopy (2D-TOCSY), correlation spectroscopy, ^1H–^13C heteronuclear single quantum coherence and ^1H–^13C heteronuclear multiple bond correlation spectra at concentrations varying between 5 and 20 mM in D2O. All NMR studies were measured at 298 K on a Varian PremiumCOMPACT 600 MHz spectrometer equipped with a OneNMR probe. For STD-NMR, samples contained 200 μM ligand and 2 μM antibody in 40 mM phosphate buffer (pH 7.0, uncorrected). On-resonance irradiation was set to −0.5 p.p.m. and off-resonance irradiation was set to 80 p.p.m. A 35-ms T1ρ spin-lock filter and a W5 WATERGATE for solvent suppression were applied. The saturation pulse train consisted of a series of Gaussian shaped pulses of 50 ms duration and 1 ms interpulse delay with an irradiation power of 85 Hz. A total of 2,048 scans were recorded. STD-NMR spectra of carbohydrates in the absence of antibody and spectra of antibody only served as negative controls. Here, saturation and relaxation times were set to 2 and 6 s, respectively. STD build-up curves for mAb 10A1 were recorded at saturation transfer times of 0.5, 1, 2, 4 and 6 s, adjusting the prescan delay accordingly. Epitopes for mAbs 2C5 and 10D6 were recorded with a saturation transfer time of 2 s. NMR spectra were processed in MestReNova 9.1 (MestreLab) and data were analysed in OriginPro9 (OriginLab) to obtain the binding epitopes according to Mayer and James[28]. For the competition experiments, 1 was added to samples of 3 or 2 to a final concentration of 200 μM applying a saturation transfer time of 2 s.

Row | SMILES | Competition of trisaccharide 2 STD effects (in words) [1] | normalized STD effect, glucose H3 [2] | normalized STD effect, rhamnose H2 [2] | normalized STD effect, rhamnose H3 [2] | normalized STD effect, rhamnose methyl protons H6, H'6 and H''6 [2]
1 | C[C@@H]1O[C@@H](O[C@@H]2[C@@H](O)[C@H](O[C@H]3[C@H](O[C@@H]4O[C@@H](C)[C@H](O)[C@@H](O)[C@H]4O)[C@@H](O)[C@@H](O[C@H]4[C@@H](OCCCCCN)O[C@H](CO)[C@@H](O)[C@@H]4O)O[C@@H]3CO)O[C@H](CO)[C@H]2O)[C@H](O)[C@H](O)[C@H]1O [Compound 1] | completely diminished any STD effects imposed by 2 |  |  |  | 
2 | C[C@@H]1O[C@@H](O[C@@H]2[C@@H](O)[C@H](OCCCCCN)O[C@H](CO)[C@H]2O)[C@H](O)[C@H](O)[C@H]1O [Compound 3, Rha-(1→3)-Glc] |  | 11% | 78% | 99% | 100%
